Measured values taken from the supplement of paper PMC11061612.

Experiments:
Test in all cases: Bliss excess, mean over the matrix (fraction); higher = more synergy
[1] = tested on: 639-V (Bladder Carcinoma)
Outline: (§1)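 Cell lines grown in DMEM/F12 or RPMI with 10% FBS were plated in 1536-well plates and held 24 hours at 37°C, 5% CO2 before 72 hours of exposure to two-drug dose matrices, with DMSO typically at 0.2%. CellTiter-Glo 2.0 luminescence gave viability, which was converted to inhibition. Vehicle wells were set to 0 and blank wells to 1. Combination Emax is the second-highest inhibition in the matrix, and Bliss excess is the observed combination effect minus the expected EA + EB − EA·EB, where EA and EB are the single-agent effects.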

[2] = tested on: CAPAN-1 (Pancreatic Carcinoma)
Outline: as §1

[3] = tested on: EN (Endometrial Carcinoma)
Outline: as §1

[4] = tested on: HCC-15 (Squamous Cell Lung Carcinoma)
Outline: as §1

[5] = tested on: HDLM-2 (Hodgkin's Lymphoma)
Outline: as §1

[6] = tested on: HO-1-u-1 (Oral Cavity Carcinoma)
Outline: as §1

[7] = tested on: Hs-633T (Other Solid Carcinomas)
Outline: as §1

[8] = tested on: K5 (Thyroid Gland Carcinoma)
Outline: as §1

[9] = tested on: LoVo (Colorectal Carcinoma)
Outline: as §1

[10] = tested on: MHH-PREB-1 (B-Cell Non-Hodgkin's Lymphoma)
Outline: as §1

[11] = tested on: Mewo (Melanoma)
Outline: as §1

[12] = tested on: NB14 (Neuroblastoma)
Outline: as §1

[13] = tested on: NCI-H2461 (Mesothelioma)
Outline: as §1

[14] = tested on: NCI-H2795 (Mesothelioma)
Outline: as §1

[15] = tested on: NCI-H69 (Small Cell Lung Carcinoma)
Outline: as §1

[16] = tested on: RPMI-6666 (Non-Cancerous)
Outline: as §1

[17] = tested on: SH-4 (Melanoma)
Outline: as §1

[18] = tested on: SK-OV-3 (Ovarian Carcinoma)
Outline: as §1

[19] = tested on: SW626 (Colorectal Carcinoma)
Outline: as §1

[20] = tested on: UMC-11 (Other Solid Carcinomas)
Outline: as §1

| SMILES | Bliss excess [1] | Bliss excess [2] | Bliss excess [3] | Bliss excess [4] | Bliss excess [5] | Bliss excess [6] | Bliss excess [7] | Bliss excess [8] | Bliss excess [9] | Bliss excess [10] | Bliss excess [11] | Bliss excess [12] | Bliss excess [13] | Bliss excess [14] | Bliss excess [15] | Bliss excess [16] | Bliss excess [17] | Bliss excess [18] | Bliss excess [19] | Bliss excess [20] |
| --- | --- | --- | --- | --- | --- | --- | --- | --- | --- | --- | --- | --- | --- | --- | --- | --- | --- | --- | --- | --- |
| CN(C)CCCOc1ccc(-c2ccc3ncc4c(c3c2)n(C2CCOCC2)c(=O)n4C)cn1 [AZD0156] + C=CCn1c(=O)c2cnc(Nc3ccc(N4CCN(C)CC4)cc3)nc2n1-c1cccc(C(C)(C)O)n1 [AZD1775] (first compound max 1 µM, partner max 1 µM) | -0.0232 | -0.0768 | -0.0767 | -0.0346 | -0.0554 | 0.0563 | -0.007 | -0.0003 | -0.0533 | 0.0036 | -0.05 | -0.0198 | -0.0451 | -0.0131 | -0.129 | -0.009 | -0.0219 | -0.0433 | -0.0576 | -0.0358 |
| CN(C)CCCOc1ccc(-c2ccc3ncc4c(c3c2)n(C2CCOCC2)c(=O)n4C)cn1 [AZD0156] + CCN(CCO)CCCOc1ccc2c(Nc3cc(CC(=O)Nc4cccc(F)c4)[nH]n3)ncnc2c1 [AZD2811] (first compound max 1 µM, 7x7, partner max 1 µM) | 0.0064 | -0.0635 | 0.0456 | -0.0506 | -0.0208 | 0.0299 | -0.0139 | -0.0334 | 0.0047 | 0.0053 | -0.0477 | -0.0955 | -0.0293 | 0.0025 | 0.0012 | 0.0312 | -0.0328 | -0.0533 | -0.0392 | -0.0622 |
| CN(C)CCCOc1ccc(-c2ccc3ncc4c(c3c2)n(C2CCOCC2)c(=O)n4C)cn1 [AZD0156] + C[C@@H]1COCCN1C2=NC(=NC(=C2)C3(CC3)[S@](=N)(=O)C)C4=C5C=CNC5=NC=C4 [AZD6738] (first compound max 1 µM, 7x7, partner max 10 µM) | 0.0109 | -0.0775 | -0.0073 | -0.0021 | -0.0448 | 0.0189 | 0.0537 | -0.0074 | -0.0191 | 0.0147 | -0.0365 | -0.0448 | -0.0664 | -0.0643 | -0.0233 | -0.0187 | 0.0052 | -0.015 | -0.0214 | -0.0176 |
| CN(C)CCCOc1ccc(-c2ccc3ncc4c(c3c2)n(C2CCOCC2)c(=O)n4C)cn1 [AZD0156] + O=C(c1cc(Cc2n[nH]c(=O)c3ccccc23)ccc1F)N1CCN(C(=O)C2CC2)CC1 [Olaparib] (first compound max 3 µM, partner max 3 µM) | 0.0535 | -0.0864 | -0.0292 | 0.136 | 0.0319 | 0.0795 | 0.17 | 0.0542 | 0.0346 | 0.0175 | -0.0711 | 0.218 | -0.0194 | 0.0432 | 0.0386 | 0.119 | 0.0237 | -0.0179 | -0.0326 | 0.0204 |
| C=CCn1c(=O)c2cnc(Nc3ccc(N4CCN(C)CC4)cc3)nc2n1-c1cccc(C(C)(C)O)n1 [AZD1775] + C1CN(CCC1(C(=O)N[C@@H](CCO)C2=CC=C(C=C2)Cl)N)C3=NC=NC4=C3C=CN4 [Capivasertib] (first compound max 3 µM, partner max 3 µM) | -0.0541 |  | -0.0623 | -0.0331 | -0.0503 | 0.037 | 0.0389 | 0.0493 | 0.0281 | -0.005 | -0.0433 | -0.0551 | -0.0587 | -0.0042 | -0.0601 | -0.0148 | -0.0713 | -0.0692 | -0.0606 | 0.0101 |
| C=CCn1c(=O)c2cnc(Nc3ccc(N4CCN(C)CC4)cc3)nc2n1-c1cccc(C(C)(C)O)n1 [AZD1775] + CCc1c2c(nc3ccc(O)cc13)-c1cc3c(c(=O)n1C2)COC(=O)[C@]3(O)CC [SN-38] (first compound max 1 µM, partner max 0.3 µM) |  | -0.0635 | 0.0209 |  | -0.0928 | 0.0391 | -0.0522 | -0.0219 | -0.0388 |  | -0.0402 | -0.007 | -0.1 | -0.0951 | -0.0629 | -0.048 | -0.072 | -0.0557 |  |  |
| C=CCn1c(=O)c2cnc(Nc3ccc(N4CCN(C)CC4)cc3)nc2n1-c1cccc(C(C)(C)O)n1 [AZD1775] + C[C@@H]1COCCN1C2=NC(=NC(=C2)C3(CC3)[S@](=N)(=O)C)C4=C5C=CNC5=NC=C4 [AZD6738] (first compound max 1 µM, partner max 10 µM) | 0.0455 | -0.0951 |  | 0.0035 | -0.0511 | 0.0263 | 0.0309 | -0.0453 | -0.0212 | 0.0075 | 0.026 | 0.0462 | -0.081 | -0.0134 | 0.0962 | -0.0165 | -0.0746 | -0.0067 | 0.0354 | -0.0454 |
